We go through one compound from patent US20200315996A1 (Board of Trustees, Southern Illinois University, priority 2016, published 2020).

One data set concerns NOS2 (iNOS). The experiment in a line: Immunohistochemistry of endometriotic lesions, NOS2. The settings on record: 3 weeks; for % of NOS2 positive cells/total cells/0.007 mm^2, Stroma: control 75.2 ± 4.6. Format: in vivo, mice. From the text: The presence and location of different proteins in the tissues obtained from the recipient mice. Samples of uterine tissue were isolated from the recipient mice, fixed by standard histological methods, and embedded in paraffin. Thin sections (5 μm) of the paraffin-embedded tissues were screened with standard immunohistochemical methods using antibodies to identify the expression of in the uterine tissues. […] The expression of MKI67, ESR1, PGR, p-CHUK, p-STAT3, NOS2 and PTGS2 proteins in uterine tissues, as determined by immunohistochemical analysis of uterine tissue sections, was semiquantitatively analyzed. Levels of apoptosis were analyzed by TUNEL assay and also semiquantitatively analyzed. […] Histological sections were obtained from 4 different lesions. For each section, three different areas measuring 0.007 mm^2 were chosen. In each of those areas, the total number of epithelial or stromal cells was counted, as was the number of cells that tested positive for expressing MKI67 (a marker of cellular proliferation), steroid receptors ESR1 and PGR, and inflammatory signaling molecules p-CHUK, p-STAT3, NOS2 and PTGS2 proteins.

A further data set deals with PTGS2 (COX2). The data set is described as follows: Immunohistochemistry of endometriotic lesions, PTGS2. As to conditions: 3 weeks; for % of PTGS2 positive cells/total cells/0.007 mm^2, Stroma: control 20.1 ± 2.2; for % of PTGS2 positive cells/total cells/0.007 mm^2, Epithelium: control 98.4 ± 0.5. Format: in vivo, mice. From the text: (§1) The presence and location of different proteins in the tissues obtained from the recipient mice. Samples of uterine tissue were isolated from the recipient mice, fixed by standard histological methods, and embedded in paraffin. Thin sections (5 μm) of the paraffin-embedded tissues were screened with standard immunohistochemical methods using antibodies to identify the expression of in the uterine tissues.
Primary antibodies that recognized MKI67 (Ki67), PECAM1 (CD31), ESR1, PGR, p-CHUK (IKK), p-STAT3, NOS2 (iNOS) and PTGS2 (COX2), and Vectastain Elite ABC Kit (# PK-6101), Mouse on Mouse Basic Kit (# BMK-2202, Vector laboratories) or DyLight-conjugated secondary antibody (#711-516-152, Jackson ImmunoResearch Lab) were used to show the presence of the proteins in the tissues, which were examined under microscopes.
The primary antibodies used in these analyses were: anti-MKI67 (Ki67, 1:200 dilution, 550609, BD Biosciences), anti-PECAM1 (CD31, 1:100 dilution, ab28364, Abcam), anti-ESR1 (1:100 dilution, sc-542, Santa Cruz Biotechnology), anti-PGR (1:200 dilution, RB-9017-P0, Thermo Scientific), anti-p-CHUK (IKK, 1:150 dilution, 2697, Cell Signaling Technology), anti-p-STAT3 (1:50 dilution, 9145, Cell Signaling Technology), anti-NOS2 (iNOS, 1:50 dilution, 610333, BD Biosciences) and anti-PTGS2 (COX2, 1:50 dilution, RM-9121, Thermo Scientific).
The expression of MKI67, ESR1, PGR, p-CHUK, p-STAT3, NOS2 and PTGS2 proteins in uterine tissues, as determined by immunohistochemical analysis of uterine tissue sections, was semiquantitatively analyzed. Levels of apoptosis were analyzed by TUNEL assay and also semiquantitatively analyzed. Histological sections were obtained from 4 different lesions. For each section, three different areas measuring 0.007 mm^2 were chosen. In each of those areas, the total number of epithelial or stromal cells was counted, as was the number of cells that tested positive for expressing MKI67 (a marker of cellular proliferation), steroid receptors ESR1 and PGR, and inflammatory signaling molecules p-CHUK, p-STAT3, NOS2 and PTGS2 proteins.
The expression of PTGS2 (COX2), an inflammatory molecule […] by NFκB and STAT3 signaling, was examined with a primary antibody against PTGS2.

Another data set deals with PECAM1 (CD31). The experiment in a line: Immunohistochemistry of endometriotic lesions, PECAM1 (endothelial cells). The data set is classed as in vivo, mice. As to conditions: 3 weeks, control 38.3 ± 3.6.
Source text: as §1
Primary antibodies that recognized MKI67 (Ki67), PECAM1 (CD31), ESR1, PGR, p-CHUK (IKK), p-STAT3, NOS2 (iNOS) and PTGS2 (COX2), and Vectastain Elite ABC Kit (# PK-6101), Mouse on Mouse Basic Kit (# BMK-2202, Vector laboratories) or DyLight-conjugated secondary antibody (#711-516-152, Jackson ImmunoResearch Lab) were used to show the presence of the proteins in the tissues, which were examined under microscopes. […]
The expression of PECAM1, a marker of endothelial cells, was semiquantitatively analyzed using areas of 0.02 mm^2 (3 different areas counted from each section, with sections obtained from 4 different lesions), and semiquantitatively analyzed.

Data set [1] relates to genes related to inflammation. The experiment in a line: RNA sequencing and qPCR of endometriotic lesions. The data set is classed as in vivo, mice. The settings on record: 3 weeks vs control. As to the method: The endometriotic lesions were screened by RNA sequencing for the expression of a variety of genes of interest. Total RNA was isolated from the lesions using the RNeasy mini kit (#74104, Qiagen). RNA quality was assessed, and RNA-sequencing (RNA-seq) were performed at the Functional Genomics Core Facility of University of Illinois. Briefly, the stranded RNA-seq libraries were prepared with IIlumina's TruSeq Stranded RNA Sample Prep kit (# RS-122-2201, Illumina). The libraries were pooled in equimolar concentration, and the pool was quantitated by qPCR and sequenced on one lane for 101 cycles on a HiSeq2500 (Illumina) using a HiSeq SBS sequencing kit (# FC-401-4002, Illumina). Fastq files were generated and demultiplexed with the bcl2fastq v1.8.4 Conversion Software (Illumina). Quantitative PCR (qPCR) was performed as described previously [Reardon, 2012]. The 5′-3′ sequences of the primer pairs (forward and reverse primer pairs) used to determine the presence of different genes are shown in Table 3. For each gene, the name of the gene, the accession number of the gene, the 5′-3′ sequence of the paired primers, and the length of the amplicon obtained is provided in Table 3. All experimental data were subjected to one-way ANOVA tests and the differences between individual means were tested by a Tukey multiple-range test using Prism 5.0 (GraphPad). qPCR data were tested by t-test using Prism 5.0. Tests of significance were performed using the appropriate error terms according to the expectation of the mean squares for error. […] Data are presented as mean with standard error of the mean (SEM).

The test system of another data set is mice. As to conditions: cited from earlier work.
Another data set has as its system rats. The settings on record: orally for 4 weeks; cited from earlier work.
The test system of the next data set is recipient mice. The data set is described as follows: General tolerability in recipient mice (Studies 1 and 2). Format: in vivo. From the text:
Uterine tissue pieces of B6-GFP mice (donor) were implanted into the peritoneal walls of recipient mice.
The recipient mice continued receiving oral daily niclosamide treatments until mouse pups were born, after which niclosamide treatment was discontinued. Three weeks after the pups were born, on postnatal day (PND) 21, the recipient mice were necropsied and the pups were weaned.

[2] abbreviates: after 3 weeks of treatment, 100 or 200 mg/kg b.w./day oral.

Structures are written as SMILES.

For the compound `O=C(Nc1ccc([N+](=O)[O-])cc1Cl)c1cc(Cl)ccc1O` [niclosamide, 5-chloro-N-(2-chloro-4-nitrophenyl)-2-hydroxybenzamide], the “% of NOS2 positive cells/total cells/0.007 mm^2, Stroma” value was 57.8 ± 4.3% in the data set on NOS2 (iNOS) (100 mg/kg b.w./day oral) and 61.9 ± 5.7% in the data set with NOS2 (iNOS) (200 mg/kg b.w./day oral). For the same compound, the “% of NOS2 positive cells/total cells/0.007 mm^2, Epithelium” value in the data set on NOS2 (iNOS) (100 mg/kg b.w./day oral, control 99.5 ± 0.4) is 99.5 ± 0.5%; with NOS2 (iNOS) (200 mg/kg b.w./day oral, control 99.5 ± 0.4, p < 0.05), 86.2 ± 5.9 %. Further, the results for the “% of PTGS2 positive cells/total cells/0.007 mm^2, Stroma” value in the data set on PTGS2 (COX2) (100 mg/kg b.w./day oral) and in the data set with PTGS2 (COX2) (200 mg/kg b.w./day oral) were 20.3 ± 3.3% and 22.8 ± 2.0%, respectively. Also, the results for the “% of PTGS2 positive cells/total cells/0.007 mm^2, Epithelium” value in the data set on PTGS2 (COX2) (100 mg/kg b.w./day oral) and in the data set with PTGS2 (COX2) (200 mg/kg b.w./day oral) were 98.2 ± 0.5% and 98.7 ± 0.7%, respectively. The “Cell number of PECAM1 positive cells/0.02 mm^2” value is on record as 34.7 ± 3.6 cells/0.02 mm^2 in the data set on PECAM1 (CD31) (100 mg/kg b.w./day oral) and 32.7 ± 2.8 cells/0.02 mm^2 in the data set on PECAM1 (CD31) (200 mg/kg b.w./day oral). Also, the “Ccl17 level in the endometriotic lesions” value in data set [1] (200 mg/kg b.w./day) is recorded as “increased”. The “expression of genes related to inflammation (Cxcl14, Lep, Lpo, Muc13, Trpc3 and Ptprz1) in the endometriotic lesions” value in data set [1] (qPCR n=6-8, 200 mg/kg b.w./day) is on record as “significantly decreased”. Further, the “expression of Id4 and Wnt7a in treated lesions” value in data set [1] (qPCR, 200 mg/kg b.w./day) is “reduced”. The “LD50, acute toxicity” value with mice is greater than 1500 mg/kg b.w. Besides, in the data set on rats, the “dose that elicits no adverse effects” value is “up to 2000 mg/kg daily”. Also, the “adverse effects including weight loss in recipient mice” value in the data set on recipient mice (setting [2]) is “no obvious adverse effects”. In addition, the “estrous cyclicity by vaginal cytology” value in the data set on recipient mice (setting [2]) is “observed in all mice”. Moreover, the “adverse reactions, such as weight loss or changes in behavior in the recipient mice” value with recipient mice (daily 200 mg/kg b.w. for three (Study 1) to four weeks (Study 2)) is given as “did not cause any adverse reactions”.
